The text below walks through data of publication PMC411064 (BMC Medicine, 2004).

Values joined by “and” are separate entries in the source; they are usually repeats but may differ in a detail not shown here. Equal entries are not always repeated. Where two headings read alike, the source gives them in different places. Marks after values point to notes of the source that are not given here.

For data set [1] the following is noted: cited from earlier work; for observed variability in the area under the curve: oral.
Data set [2] concerns Caco-2 cells. In words: CPT directional transport across Caco-2 cell monolayers. It is filed as in vitro ADME, human. (Caco-2 cells form a polarised layer with tight junctions and transporters.)
Data set [3] addresses human multidrug resistance protein 2 (MRP2) (ABCC2) (Homo sapiens, UniProt Q92887). Description: CPT directional transport across MDCK II/MRP2 cell monolayers. It counts as in vitro ADME.
The target of data set [4] is human P-glycoprotein (PGP) (ABCB1) (Homo sapiens, UniProt P08183). In words: CPT directional transport across MDCK II/PGP cell monolayers. It is filed as in vitro ADME.
Data set [5] is described as follows: CPT directional transport across MDCK II/wt cell monolayers. Conditions: dog, MDCK, pH 7.4. It is filed as in vitro ADME, dog.
Another data set relates to MDCK II/wt cells. Described as above. It counts as in vitro ADME, dog. Conditions: MDCK II/wt.
The format of data set [6] is in vitro ADME. The note with it: rat intestinal and liver s9 fractions and microsomes; data not shown.
Data set [7] deals with Caco-2 cells. Description: Inhibition of CPT efflux. It is filed as in vitro ADME, human. Conditions: for decrease of CPT secretory permeability in the presence of inhibitor: BL to AP.
For data set [8] the following is noted: read-out: Km value of etoposide; estimated in the authors' laboratory; cited from earlier work.
Data set [9] relates to CC[C@@]1(O)C(=O)OCc2c1cc1n(c2=O)Cc2cc3ccccc3nc2-1. Description: CPT directional transport across MDCK II/PGP cell monolayers. It is filed as in vitro ADME, human. Conditions: other: MDCK II/PGP, 37.0 °C.
Substrate in data set [10]: CC[C@@]1(O)C(=O)OCc2c1cc1n(c2=O)Cc2cc3ccccc3nc2-1
Description: CPT directional transport across MDCK II/MRP2 cell monolayers. It counts as in vitro ADME, human. The note with it: other: MDCK II/MRP2, 37.0 °C.

Where [11] appears, read: orally administered, clinical evaluation.

Chain of human P-glycoprotein (PGP) (ABCB1) (P08183 whole entry): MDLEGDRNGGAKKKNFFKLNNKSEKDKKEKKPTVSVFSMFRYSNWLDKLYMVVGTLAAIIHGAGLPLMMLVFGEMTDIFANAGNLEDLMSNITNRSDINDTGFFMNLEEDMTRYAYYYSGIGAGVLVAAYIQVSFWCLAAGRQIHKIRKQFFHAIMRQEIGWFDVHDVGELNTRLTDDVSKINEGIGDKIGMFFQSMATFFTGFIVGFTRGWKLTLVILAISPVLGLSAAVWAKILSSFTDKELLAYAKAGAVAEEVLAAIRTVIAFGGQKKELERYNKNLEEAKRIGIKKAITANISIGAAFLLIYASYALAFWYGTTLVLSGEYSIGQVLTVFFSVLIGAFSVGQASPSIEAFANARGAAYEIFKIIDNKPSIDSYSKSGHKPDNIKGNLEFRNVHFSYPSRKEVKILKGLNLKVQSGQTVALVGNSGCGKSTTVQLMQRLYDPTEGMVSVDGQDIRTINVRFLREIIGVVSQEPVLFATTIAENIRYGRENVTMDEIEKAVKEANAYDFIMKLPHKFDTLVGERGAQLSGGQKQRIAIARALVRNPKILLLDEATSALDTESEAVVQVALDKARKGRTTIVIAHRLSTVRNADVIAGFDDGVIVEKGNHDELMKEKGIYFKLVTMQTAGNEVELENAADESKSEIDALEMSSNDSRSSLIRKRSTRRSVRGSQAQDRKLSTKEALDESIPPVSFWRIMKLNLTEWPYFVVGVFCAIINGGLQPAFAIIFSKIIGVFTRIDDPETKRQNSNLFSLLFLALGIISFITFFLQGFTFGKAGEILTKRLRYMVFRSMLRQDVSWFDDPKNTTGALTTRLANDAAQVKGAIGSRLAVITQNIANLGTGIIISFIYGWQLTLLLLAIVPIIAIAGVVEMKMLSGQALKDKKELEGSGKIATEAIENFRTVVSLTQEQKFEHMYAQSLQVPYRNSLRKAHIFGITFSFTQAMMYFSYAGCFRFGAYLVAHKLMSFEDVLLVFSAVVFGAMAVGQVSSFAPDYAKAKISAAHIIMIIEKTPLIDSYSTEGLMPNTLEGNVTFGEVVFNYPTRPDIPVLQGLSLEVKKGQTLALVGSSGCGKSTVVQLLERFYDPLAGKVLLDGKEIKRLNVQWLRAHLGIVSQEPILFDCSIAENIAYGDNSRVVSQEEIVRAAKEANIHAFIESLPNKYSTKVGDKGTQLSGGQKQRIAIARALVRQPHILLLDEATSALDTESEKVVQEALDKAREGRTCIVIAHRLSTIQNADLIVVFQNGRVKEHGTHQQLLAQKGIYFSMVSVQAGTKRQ

One may read the Km as the concentration of substrate that gives half-maximal velocity. As usually defined, the efflux ratio is the permeability from basolateral to apical divided by that in the opposite direction, in the common usage. As to `CC[C@@]1(O)C(=O)OCc2c1cc1n(c2=O)Cc2cc3ccccc3nc2-1` [CPT, 20-(S)-camptothecin], the “variability in the area under the curve” value in [1] (setting [11]) is reported as 164%. Moreover, the “variability in the bioavailability” value in [1] (setting [11]) is 10 fold. Moreover, the “Pc carrier permeability, absorptive” value is given as 8.3 ± 0.3 cm/s × 10^5 with Caco-2 cells [2] (AP to BL), 2.5 ± 0.4 cm/s × 10^5 in data set [3] (AP to BL), 2.2 ± 0.5 cm/s × 10^5 in data set [4] (AP to BL) and 2.5 ± 0.7 cm/s × 10^5 in the data set on MDCK II/wt cells (AP to BL). The “Pm passive permeability, absorptive” value with Caco-2 cells [2] (AP to BL, estimated as Peff at 4°C) is 0.43 ± 0.05^a cm/s × 10^5. Besides, the “Pc carrier permeability, secretory” value was 2.1 ± 0.1 cm/s × 10^5 in the data set on Caco-2 cells [2] (BL to AP), 4.3 ± 0.7 cm/s × 10^5 in [3] (BL to AP), 4.1 ± 0.4 cm/s × 10^5 in [4] (BL to AP) and 2.0 ± 0.2 cm/s × 10^5 with MDCK II/wt cells (BL to AP). Further, the “energy of activation (Ea) of efflux” value with Caco-2 cells [2] (BL to AP, Arrhenius plot, 4°C to 37°C) is ~ 11.3 kcal/mole. The “Pm passive permeability, secretory” value in the data set with Caco-2 cells [2] (BL to AP, estimated as efflux Peff at 4°C) was 0.35 ± 0.04^a cm/s × 10^5. Also, the “Pc for CPT secretory efflux” value in the data set on Caco-2 cells [2] (BL to AP, weighted nonlinear regression) is reported as 2.1 ± 0.1 × 10^-5 cm/s. Moreover, the Km in the data set with Caco-2 cells [2] (read-out: Km, secretory (bisolateral to apical), BL to AP, weighted nonlinear regression) was 132 µM and 133 µM; in the data set with MDCK II/wt cells (read-out: Km, absorptive (apical to bisolateral), AP to BL) it was 71.5 ± 9.7 µM; in the data set on MDCK II/wt cells (read-out: Km, secretory (bisolateral to apical), BL to AP), 81.3 ± 14.6 µM. In addition, the efflux ratio at 105 min in [5] was around 1. The degradation on incubation entry in data set [6] was “Minimal degradation”.

With `CCc1c2c(nc3ccc(OC(=O)N4CCC(N5CCCCC5)CC4)cc13)-c1cc3c(c(=O)n1C2)COC(=O)[C@]3(O)CC` [CPT-11, irinotecan], in data set [1], the “observed variability in the area under the curve” value is listed as 50%.

As for `COc1cc2c(cc1OC)CN(CCc1ccc(NC(=O)c3cccc4c(=O)c5cccc(OC)c5[nH]c34)cc1)CC2` [GF120918], the “decrease of CPT secretory permeability in the presence of inhibitor” value in the data set with Caco-2 cells [7] was determined as 52.5%. The “reduction of CPT efflux” value in the data set on Caco-2 cells [7] (GF120918 0.4 μM, CPT 10 μM) was found to be 2.1 fold. Moreover, in the data set with Caco-2 cells [7] (GF120918 0.8–1.2 μM, data not shown), the “effect of increasing inhibitor concentration on CPT efflux” value is reported as “not further reduced”.

As to `CC[C@@]1(O)C(=O)OCc2c1cc1n(c2=O)Cc2cc3c(CN(C)C)c(O)ccc3nc2-1` [TPT, topotecan], the “observed variability in the area under the curve” value in [1] is recorded as 41%.

Regarding `COc1cc([C@@H]2c3cc4c(cc3[C@@H](O[C@@H]3O[C@@H]5CO[C@@H](C)O[C@H]5[C@H](O)[C@H]3O)[C@H]3COC(=O)[C@H]23)OCO4)cc(OC)c1O` [etoposide], in [8], the Km is around 213 µM. Moreover, in the data set on Caco-2 cells [7], the “decrease of CPT secretory permeability in the presence of inhibitor” value is recorded as 25.6%. The “reduction of CPT efflux permeability” value in the data set with Caco-2 cells [7] (etoposide 200 μM, CPT 10 μM) was found to be 1.3 fold.

As to “human P-glycoprotein (PGP) (ABCB1) (Homo sapiens)”, the Michaelis constant (Km) in [9] (AP to BL) turned out to be 69.7 ± 7.6 µM; in [9] (BL to AP), 36.3 ± 7.5 µM.

B1: human multidrug resistance protein 2 (MRP2) (ABCC2) (Homo sapiens) (protein)
chain: MLEKFCNSTFWNSSFLDSPEADLPLCFEQTVLVWIPLGYLWLLAPWQLLHVYKSRTKRSSTTKLYLAKQVFVGFLLILAAIELALVLTEDSGQATVPAVRYTNPSLYLGTWLLVLLIQYSRQWCVQKNSWFLSLFWILSILCGTFQFQTLIRTLLQGDNSNLAYSCLFFISYGFQILILIFSAFSENNESSNNPSSIASFLSSITYSWYDSIILKGYKRPLTLEDVWEVDEEMKTKTLVSKFETHMKRELQKARRALQRRQEKSSQQNSGARLPGLNKNQSQSQDALVLEDVEKKKKKSGTKKDVPKSWLMKALFKTFYMVLLKSFLLKLVNDIFTFVSPQLLKLLISFASDRDTYLWIGYLCAILLFTAALIQSFCLQCYFQLCFKLGVKVRTAIMASVYKKALTLSNLARKEYTVGETVNLMSVDAQKLMDVTNFMHMLWSSVLQIVLSIFFLWRELGPSVLAGVGVMVLVIPINAILSTKSKTIQVKNMKNKDKRLKIMNEILSGIKILKYFAWEPSFRDQVQNLRKKELKNLLAFSQLQCVVIFVFQLTPVLVSVVTFSVYVLVDSNNILDAQKAFTSITLFNILRFPLSMLPMMISSMLQASVSTERLEKYLGGDDLDTSAIRHDCNFDKAMQFSEASFTWEHDSEATVRDVNLDIMAGQLVAVIGPVGSGKSSLISAMLGEMENVHGHITIKGTTAYVPQQSWIQNGTIKDNILFGTEFNEKRYQQVLEACALLPDLEMLPGGDLAEIGEKGINLSGGQKQRISLARATYQNLDIYLLDDPLSAVDAHVGKHIFNKVLGPNGLLKGKTRLLVTHSMHFLPQVDEIVVLGNGTIVEKGSYSALLAKKGEFAKNLKTFLRHTGPEEEATVHDGSEEEDDDYGLISSVEEIPEDAASITMRRENSFRRTLSRSSRSNGRHLKSLRNSLKTRNVNSLKEDEELVKGQKLIKKEFIETGKVKFSIYLEYLQAIGLFSIFFIILAFVMNSVAFIGSNLWLSAWTSDSKIFNSTDYPASQRDMRVGVYGALGLAQGIFVFIAHFWSAFGFVHASNILHKQLLNNILRAPMRFFDTTPTGRIVNRFAGDISTVDDTLPQSLRSWITCFLGIISTLVMICMATPVFTIIVIPLGIIYVSVQMFYVSTSRQLRRLDSVTRSPIYSHFSETVSGLPVIRAFEHQQRFLKHNEVRIDTNQKCVFSWITSNRWLAIRLELVGNLTVFFSALMMVIYRDTLSGDTVGFVLSNALNITQTLNWLVRMTSEIETNIVAVERITEYTKVENEAPWVTDKRPPPDWPSKGKIQFNNYQVRYRPELDLVLRGITCDIGSMEKIGVVGRTGAGKSSLTNCLFRILEAAGGQIIIDGVDIASIGLHDLREKLTIIPQDPILFSGSLRMNLDPFNNYSDEEIWKALELAHLKSFVASLQLGLSHEVTEAGGNLSIGQRQLLCLGRALLRKSKILVLDEATAAVDLETDNLIQTTIQNEFAHCTVITIAHRLHTIMDSDKVMVLDNGKIIECGSPEELLQIPGPFYFMAKEAGIENVNSTKF
Take B1: the values for the Km in data set [10] (AP to BL) and in [10] (BL to AP) were 101.2 ± 17.8 µM and 65.8 ± 6.7 µM, respectively.
